Test results taken from ChEMBL document CHEMBL4804286, “3-amino-4-(4-(4 (dimethylcarbamoyl) phenyl)-1,4-diazepan-1-yl) thieno [2,3-b] pyridine-2-carboxamide for use in cancer therapy and formulations comprising the same” (2020).
Values joined by “and” are separate entries in the source; they are usually repeats but may differ in a detail not shown here. Identical values can stand only once. Active and inactive are the calls of the source. No cut-off for these calls is given here.

Columns and labels:
[1] = test system: Tyrosine-protein kinase ABL1 (Homo sapiens), P00519 [T315I]; experiment: Inhibition of non-phosphorylated human ABL1 T315I mutant assessed as percent of control at 2000 nM by KINOMEscan assay relative to control; parameters: scale not given: the % may be the effect or the level left
[2] = biological target: Serine/threonine-protein kinase BRSK1 (Homo sapiens) (UniProt Q8TDC3); experiment: Inhibition of human BRSK1 assessed as percent of control at 2000 nM by KINOMEscan assay relative to control; parameters: scale not given: the % may be the effect or the level left
[3] = biological target: Calcium/calmodulin-dependent protein kinase type II subunit delta (Homo sapiens) (UniProt Q13557); experiment: Inhibition of human CAMK2D assessed as percent of control at 2000 nM by KINOMEscan assay relative to control; parameters: scale not given: the % may be the effect or the level left
[4] = biological target: Calcium/calmodulin-dependent protein kinase kinase 1 (Homo sapiens) (UniProt Q8N5S9); experiment: Inhibition of human CAMKK1 assessed as percent of control at 2000 nM by KINOMEscan assay relative to control; parameters: scale not given: the % may be the effect or the level left
[5] = biological target: Cyclin-dependent kinase-like 2 (Homo sapiens) (UniProt Q92772); experiment: Inhibition of human CDKL2 assessed as percent of control at 2000 nM by KINOMEscan assay relative to control; parameters: scale not given: the % may be the effect or the level left
[6] = biological target: Death-associated protein kinase 2 (Homo sapiens) (UniProt Q9UIK4); experiment: Inhibition of human DAPK2 assessed as percent of control at 2000 nM by KINOMEscan assay relative to control; parameters: scale not given: the % may be the effect or the level left
[7] = biological target: Serine/threonine-protein kinase 17A (Homo sapiens) (UniProt Q9UEE5); experiment: Inhibition of human DRAK1 assessed as percent of control at 2000 nM by KINOMEscan assay relative to control; parameters: scale not given: the % may be the effect or the level left
[8] = biological target: Ephrin type-B receptor 3 (Homo sapiens) (UniProt P54753); experiment: Inhibition of human EPHB3 assessed as percent of control at 2000 nM by KINOMEscan assay relative to control; parameters: scale not given: the % may be the effect or the level left
[9] = biological target: Glycogen synthase kinase-3 beta (Homo sapiens) (UniProt P49841); experiment: Inhibition of human GSK3B assessed as percent of control at 2000 nM by KINOMEscan assay relative to control; parameters: scale not given: the % may be the effect or the level left
[10] = biological target: Mitogen-activated protein kinase kinase kinase kinase 1 (Homo sapiens) (UniProt Q92918); experiment: Inhibition of human HPK1 assessed as percent of control at 2000 nM by KINOMEscan assay relative to control; parameters: scale not given: the % may be the effect or the level left
[11] = biological target: Interleukin-1 receptor-associated kinase 1 (Homo sapiens) (UniProt P51617); experiment: Inhibition of human IRAK1 assessed as percent of control at 2000 nM by KINOMEscan assay relative to control; parameters: scale not given: the % may be the effect or the level left
[12] = test system: Mast/stem cell growth factor receptor Kit (Homo sapiens), P10721 [D816H]; experiment: Inhibition of human KIT D816H mutant assessed as percent of control at 2000 nM by KINOMEscan assay relative to control; parameters: scale not given: the % may be the effect or the level left
[13] = test system: Mast/stem cell growth factor receptor Kit (Homo sapiens), P10721 [V559D,T670I]; experiment: Inhibition of human KIT V559D/T670I double mutant assessed as percent of control at 2000 nM by KINOMEscan assay relative to control; parameters: scale not given: the % may be the effect or the level left
[14] = test system: Mast/stem cell growth factor receptor Kit (Homo sapiens), P10721 [V559D,V654A]; experiment: Inhibition of human KIT V559D/V654A double mutant assessed as percent of control at 2000 nM by KINOMEscan assay relative to control; parameters: scale not given: the % may be the effect or the level left
[15] = biological target: Mitogen-activated protein kinase kinase kinase 15 (Homo sapiens) (UniProt Q6ZN16); experiment: Inhibition of human MAP3K15 assessed as percent of control at 2000 nM by KINOMEscan assay relative to control; parameters: scale not given: the % may be the effect or the level left
[16] = biological target: Dual specificity mitogen-activated protein kinase kinase 6 (Homo sapiens) (UniProt P52564); experiment: Inhibition of human MEK6 assessed as percent of control at 2000 nM by KINOMEscan assay relative to control; parameters: scale not given: the % may be the effect or the level left
[17] = biological target: Hepatocyte growth factor receptor (Homo sapiens) (UniProt P08581); experiment: Inhibition of human MET assessed as percent of control at 2000 nM by KINOMEscan assay relative to control; parameters: scale not given: the % may be the effect or the level left
[18] = biological target: Mitogen-activated protein kinase kinase kinase 9 (Homo sapiens) (UniProt P80192); experiment: Inhibition of human MLK1 assessed as percent of control at 2000 nM by KINOMEscan assay relative to control; parameters: scale not given: the % may be the effect or the level left
[19] = biological target: Serine/threonine-protein kinase MRCK alpha (Homo sapiens) (UniProt Q5VT25); experiment: Inhibition of human MRCKA assessed as percent of control at 2000 nM by KINOMEscan assay relative to control; parameters: scale not given: the % may be the effect or the level left
[20] = biological target: Serine/threonine-protein kinase 38 (Homo sapiens) (UniProt Q15208); experiment: Inhibition of human NDR1 assessed as percent of control at 2000 nM by KINOMEscan assay relative to control; parameters: scale not given: the % may be the effect or the level left
[21] = biological target: Serine/threonine-protein kinase PAK 2 (Homo sapiens) (UniProt Q13177); experiment: Inhibition of human PAK2 assessed as percent of control at 2000 nM by KINOMEscan assay relative to control; parameters: scale not given: the % may be the effect or the level left
[22] = biological target: Serine/threonine-protein kinase PAK 5 (Homo sapiens) (UniProt Q9P286); experiment: Inhibition of human PAK7 assessed as percent of control at 2000 nM by KINOMEscan assay relative to control; parameters: scale not given: the % may be the effect or the level left
[23] = biological target: Phosphatidylinositol 5-phosphate 4-kinase type-2 beta (Homo sapiens) (UniProt P78356); experiment: Inhibition of human PIP5K2B assessed as percent of control at 2000 nM by KINOMEscan assay relative to control; parameters: scale not given: the % may be the effect or the level left
[24] = biological target: Serine/threonine-protein kinase RIO1 (Homo sapiens) (UniProt Q9BRS2); experiment: Inhibition of human RIOK1 assessed as percent of control at 2000 nM by KINOMEscan assay relative to control; parameters: scale not given: the % may be the effect or the level left
[25] = biological target: Rho-associated protein kinase 1 (Homo sapiens) (UniProt Q13464); experiment: Inhibition of human ROCK1 assessed as percent of control at 2000 nM by KINOMEscan assay relative to control; parameters: scale not given: the % may be the effect or the level left
[26] = biological target: Ribosomal protein S6 kinase alpha-3 (Homo sapiens) (UniProt P51812); experiment: Inhibition of human C-terminal RSK2 kinase domain 2 assessed as percent of control at 2000 nM by KINOMEscan assay relative to control; parameters: scale not given: the % may be the effect or the level left
[27] = biological target: Ribosomal protein S6 kinase alpha-6 (Homo sapiens) (UniProt Q9UK32); experiment: Inhibition of human C-terminal RSK4 kinase domain 2 assessed as percent of control at 2000 nM by KINOMEscan assay relative to control; parameters: scale not given: the % may be the effect or the level left
[28] = biological target: Serine/threonine-protein kinase TBK1 (Homo sapiens) (UniProt Q9UHD2); experiment: Inhibition of human TBK1 assessed as percent of control at 2000 nM by KINOMEscan assay relative to control; parameters: scale not given: the % may be the effect or the level left
[29] = biological target: NT-3 growth factor receptor (Homo sapiens) (UniProt Q16288); experiment: Inhibition of human TRKC assessed as percent of control at 2000 nM by KINOMEscan assay relative to control; parameters: scale not given: the % may be the effect or the level left
[30] = biological target: Non-receptor tyrosine-protein kinase TYK2 (Homo sapiens) (UniProt P29597); experiment: Inhibition of human TYK2 JH1 catalytic domain assessed as percent of control at 2000 nM by KINOMEscan assay relative to control; parameters: scale not given: the % may be the effect or the level left
Myc-CaP = experiment: Antitumor activity against murine castration-resistant Myc-CaP cells xenografted in male FVB mouse assessed as suppression of tumor weight in presence of enzalutamide; format: functional

Chain of Serine/threonine-protein kinase MRCK alpha (Homo sapiens) (Q5VT25 whole entry): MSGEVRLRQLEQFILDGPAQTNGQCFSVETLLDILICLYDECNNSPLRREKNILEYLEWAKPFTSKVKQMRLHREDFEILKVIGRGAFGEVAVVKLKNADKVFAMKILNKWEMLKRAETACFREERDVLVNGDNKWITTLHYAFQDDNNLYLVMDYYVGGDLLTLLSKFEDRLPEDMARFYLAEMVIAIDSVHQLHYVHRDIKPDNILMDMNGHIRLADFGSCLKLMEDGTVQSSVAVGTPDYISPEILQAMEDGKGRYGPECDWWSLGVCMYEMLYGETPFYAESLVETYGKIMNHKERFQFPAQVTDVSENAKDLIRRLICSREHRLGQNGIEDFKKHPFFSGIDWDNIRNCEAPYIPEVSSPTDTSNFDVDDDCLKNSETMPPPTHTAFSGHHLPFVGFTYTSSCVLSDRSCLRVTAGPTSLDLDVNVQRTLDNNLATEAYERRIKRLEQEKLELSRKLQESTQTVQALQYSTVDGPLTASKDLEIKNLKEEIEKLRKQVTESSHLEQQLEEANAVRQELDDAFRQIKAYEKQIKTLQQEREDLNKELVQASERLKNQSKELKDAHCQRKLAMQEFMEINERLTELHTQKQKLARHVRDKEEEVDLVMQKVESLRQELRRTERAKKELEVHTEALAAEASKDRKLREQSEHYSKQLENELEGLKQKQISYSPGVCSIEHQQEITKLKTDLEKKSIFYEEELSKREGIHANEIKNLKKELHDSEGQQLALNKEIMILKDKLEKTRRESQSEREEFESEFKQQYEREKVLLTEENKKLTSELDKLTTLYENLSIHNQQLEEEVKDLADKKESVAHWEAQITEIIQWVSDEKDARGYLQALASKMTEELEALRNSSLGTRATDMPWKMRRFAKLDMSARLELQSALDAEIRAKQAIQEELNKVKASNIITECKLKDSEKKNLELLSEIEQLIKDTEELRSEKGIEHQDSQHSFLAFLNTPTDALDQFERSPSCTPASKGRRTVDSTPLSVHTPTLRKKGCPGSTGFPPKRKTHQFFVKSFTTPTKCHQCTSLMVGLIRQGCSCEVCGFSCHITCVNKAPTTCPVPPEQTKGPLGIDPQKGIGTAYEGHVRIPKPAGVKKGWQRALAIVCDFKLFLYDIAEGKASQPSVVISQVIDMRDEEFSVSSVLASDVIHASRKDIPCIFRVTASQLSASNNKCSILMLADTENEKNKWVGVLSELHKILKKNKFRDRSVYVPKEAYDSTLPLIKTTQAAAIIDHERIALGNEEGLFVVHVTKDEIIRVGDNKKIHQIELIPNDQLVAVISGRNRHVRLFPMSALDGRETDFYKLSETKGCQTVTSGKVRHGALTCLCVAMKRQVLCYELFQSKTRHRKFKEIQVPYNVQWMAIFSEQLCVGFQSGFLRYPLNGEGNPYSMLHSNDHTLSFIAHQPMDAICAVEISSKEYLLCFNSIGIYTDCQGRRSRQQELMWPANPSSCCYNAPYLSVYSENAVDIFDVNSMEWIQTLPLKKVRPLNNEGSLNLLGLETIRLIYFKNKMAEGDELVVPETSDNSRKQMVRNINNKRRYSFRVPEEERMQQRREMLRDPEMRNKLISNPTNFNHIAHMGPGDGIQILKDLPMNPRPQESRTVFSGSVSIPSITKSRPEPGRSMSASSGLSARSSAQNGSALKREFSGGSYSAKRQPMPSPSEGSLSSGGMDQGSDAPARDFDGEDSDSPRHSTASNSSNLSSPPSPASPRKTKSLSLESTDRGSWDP
Chain of Phosphatidylinositol 5-phosphate 4-kinase type-2 beta (Homo sapiens) (P78356 whole entry): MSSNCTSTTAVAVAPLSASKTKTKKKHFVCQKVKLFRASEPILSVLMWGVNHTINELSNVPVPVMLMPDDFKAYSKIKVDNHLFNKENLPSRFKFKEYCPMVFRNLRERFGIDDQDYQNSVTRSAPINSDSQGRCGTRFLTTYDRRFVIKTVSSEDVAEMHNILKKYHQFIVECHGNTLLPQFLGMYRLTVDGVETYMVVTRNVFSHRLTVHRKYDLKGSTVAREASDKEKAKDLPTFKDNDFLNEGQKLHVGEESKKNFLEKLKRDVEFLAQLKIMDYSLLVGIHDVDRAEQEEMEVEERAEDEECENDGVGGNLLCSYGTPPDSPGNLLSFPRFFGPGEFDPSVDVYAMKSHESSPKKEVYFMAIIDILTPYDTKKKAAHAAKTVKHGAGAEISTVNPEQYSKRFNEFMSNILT
Chain of Mitogen-activated protein kinase kinase kinase 9 (Homo sapiens) (P80192 whole entry, looked up): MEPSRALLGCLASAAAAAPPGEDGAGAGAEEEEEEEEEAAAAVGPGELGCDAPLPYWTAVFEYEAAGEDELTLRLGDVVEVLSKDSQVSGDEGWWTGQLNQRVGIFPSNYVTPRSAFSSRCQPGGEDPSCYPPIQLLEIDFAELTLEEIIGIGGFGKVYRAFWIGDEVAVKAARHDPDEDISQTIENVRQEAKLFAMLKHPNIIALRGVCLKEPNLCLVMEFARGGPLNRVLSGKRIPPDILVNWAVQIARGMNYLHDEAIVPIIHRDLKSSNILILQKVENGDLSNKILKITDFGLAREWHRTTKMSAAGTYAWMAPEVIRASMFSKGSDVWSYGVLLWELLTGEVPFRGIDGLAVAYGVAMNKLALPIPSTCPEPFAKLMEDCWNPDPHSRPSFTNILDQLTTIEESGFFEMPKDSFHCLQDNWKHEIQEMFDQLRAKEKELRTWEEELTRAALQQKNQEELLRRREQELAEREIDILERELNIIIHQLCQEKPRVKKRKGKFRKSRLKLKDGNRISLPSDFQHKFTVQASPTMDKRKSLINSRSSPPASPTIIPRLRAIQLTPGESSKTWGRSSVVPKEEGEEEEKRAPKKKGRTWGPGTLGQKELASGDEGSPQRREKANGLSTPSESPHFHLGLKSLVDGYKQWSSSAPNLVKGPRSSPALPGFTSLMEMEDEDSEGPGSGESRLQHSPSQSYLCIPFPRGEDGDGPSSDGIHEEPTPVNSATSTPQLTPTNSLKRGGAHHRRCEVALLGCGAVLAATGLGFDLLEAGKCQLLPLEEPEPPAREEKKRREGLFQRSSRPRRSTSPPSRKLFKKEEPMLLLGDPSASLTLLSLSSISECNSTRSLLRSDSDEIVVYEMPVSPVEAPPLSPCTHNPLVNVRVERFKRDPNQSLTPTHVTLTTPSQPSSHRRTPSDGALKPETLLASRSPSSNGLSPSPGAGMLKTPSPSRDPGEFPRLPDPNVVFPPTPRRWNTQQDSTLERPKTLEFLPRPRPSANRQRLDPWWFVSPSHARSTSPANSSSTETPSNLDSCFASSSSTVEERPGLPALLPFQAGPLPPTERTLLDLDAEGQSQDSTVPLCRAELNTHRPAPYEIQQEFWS
Chain of Serine/threonine-protein kinase PAK 5 (Homo sapiens) (Q9P286 whole entry, looked up): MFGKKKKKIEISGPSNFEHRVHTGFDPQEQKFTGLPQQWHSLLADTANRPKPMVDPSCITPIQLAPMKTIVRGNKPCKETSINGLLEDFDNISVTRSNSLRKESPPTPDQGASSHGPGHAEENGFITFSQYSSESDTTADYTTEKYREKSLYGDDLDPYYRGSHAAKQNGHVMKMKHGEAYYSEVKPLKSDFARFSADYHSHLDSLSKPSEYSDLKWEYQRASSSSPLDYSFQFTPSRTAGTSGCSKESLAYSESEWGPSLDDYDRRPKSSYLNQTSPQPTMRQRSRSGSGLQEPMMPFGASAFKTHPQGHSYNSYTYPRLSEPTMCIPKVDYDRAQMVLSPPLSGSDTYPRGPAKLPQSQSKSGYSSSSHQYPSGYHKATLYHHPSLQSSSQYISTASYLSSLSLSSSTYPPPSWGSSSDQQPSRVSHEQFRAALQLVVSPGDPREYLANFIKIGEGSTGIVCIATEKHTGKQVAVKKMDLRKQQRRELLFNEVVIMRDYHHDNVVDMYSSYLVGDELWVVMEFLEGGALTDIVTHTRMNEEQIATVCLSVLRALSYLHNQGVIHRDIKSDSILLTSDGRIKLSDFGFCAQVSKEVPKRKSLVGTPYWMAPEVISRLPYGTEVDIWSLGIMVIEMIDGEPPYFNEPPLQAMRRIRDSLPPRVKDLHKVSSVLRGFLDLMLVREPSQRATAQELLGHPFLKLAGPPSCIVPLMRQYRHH
Chain of Mast/stem cell growth factor receptor Kit (Homo sapiens), P10721 [V559D,T670I] (P10721 whole entry V559D/T670I): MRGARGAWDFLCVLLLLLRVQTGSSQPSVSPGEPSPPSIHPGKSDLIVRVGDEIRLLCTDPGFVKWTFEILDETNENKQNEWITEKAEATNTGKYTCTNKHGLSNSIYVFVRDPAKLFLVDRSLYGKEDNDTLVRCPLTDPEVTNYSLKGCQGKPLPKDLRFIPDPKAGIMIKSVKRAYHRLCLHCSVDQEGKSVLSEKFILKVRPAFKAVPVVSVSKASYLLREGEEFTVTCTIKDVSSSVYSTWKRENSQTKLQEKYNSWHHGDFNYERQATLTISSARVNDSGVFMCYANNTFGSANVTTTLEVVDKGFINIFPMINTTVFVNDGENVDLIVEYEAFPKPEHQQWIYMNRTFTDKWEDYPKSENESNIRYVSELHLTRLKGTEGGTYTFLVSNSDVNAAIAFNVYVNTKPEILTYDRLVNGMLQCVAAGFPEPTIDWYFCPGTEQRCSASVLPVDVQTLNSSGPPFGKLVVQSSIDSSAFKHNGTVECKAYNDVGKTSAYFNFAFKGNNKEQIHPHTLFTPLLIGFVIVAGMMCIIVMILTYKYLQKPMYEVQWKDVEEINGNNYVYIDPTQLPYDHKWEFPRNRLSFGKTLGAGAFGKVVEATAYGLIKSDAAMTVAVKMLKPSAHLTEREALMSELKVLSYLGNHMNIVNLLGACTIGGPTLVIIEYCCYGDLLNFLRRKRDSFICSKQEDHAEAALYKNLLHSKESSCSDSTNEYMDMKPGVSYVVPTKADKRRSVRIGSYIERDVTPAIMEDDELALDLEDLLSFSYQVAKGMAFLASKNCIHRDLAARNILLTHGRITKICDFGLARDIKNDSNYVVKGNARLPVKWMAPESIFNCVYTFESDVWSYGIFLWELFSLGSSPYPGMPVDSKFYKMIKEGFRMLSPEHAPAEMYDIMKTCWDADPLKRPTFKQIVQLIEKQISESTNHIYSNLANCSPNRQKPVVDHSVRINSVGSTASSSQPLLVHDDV
Chain of Mast/stem cell growth factor receptor Kit (Homo sapiens), P10721 [V559D,V654A] (P10721 whole entry V559D/V654A): as the sequence (P10721 whole entry V559D/T670I) above, with V654A, I670T counted along it
Chain of Mast/stem cell growth factor receptor Kit (Homo sapiens), P10721 [D816H] (P10721 whole entry D816H): as the sequence (P10721 whole entry V559D/T670I) above, with D559V, I670T, D816H counted along it

## CN(C)C(=O)c1ccc(N2CCCN(c3ccnc4sc(C(N)=O)c(N)c34)CC2)cc1
[1]
  Activity: 90% and 78%
[2]
  Activity: 86% and 97%
[3]
  Activity: 99% and 92%
[4]
  Activity: 96% and 100%
[5]
  Activity: 86% and 96%
[6]
  Activity: 75% and 85%
[7]
  Activity: 100%
[8]
  Activity: 96% and 94%
[9]
  Activity: 79% and 77%
[10]
  Activity: 98% and 100%
[11]
  Activity: 94% and 84%
[12]
  Activity: 91% and 66%
[13]
  Activity: 100% and 96%
[14]
  Activity: 100%
[15]
  Activity: 97% and 92%
[16]
  Activity: 100% and 96%
[17]
  Activity: 99% and 92%
[18]
  Activity: 95% and 92%
[19]
  Activity: 94% and 100%
[20]
  Activity: 100% and 80%
[21]
  Activity: 91% and 94%
[22]
  Activity: 100% and 80%
[23]
  Activity: 92% and 95%
[24]
  Activity: 100%
[25]
  Activity: 77% and 67%
[26]
  Activity: 94% and 92%
[27]
  Activity: 94% and 79%
[28]
  Activity: 99% and 97%
[29]
  Activity: 91% and 85%
[30]
  Activity: 95% and 82%
Myc-CaP
  Activity: Active
